From ChEMBL document CHEMBL3120076, “Structure-activity relationship of Baifuzi-cerebrosides on BKCa channel activation” (Eur J Med Chem, 2014)
The source made the active and inactive calls. No cut-off for these calls is given here.

Columns and labels:
Assay type in all cases: cell-based
CHO-K1 [1] = assay: Extracellular activation of wild type BK calcium channel (unknown origin) expressed in CHO-K1 cells assessed as increase in whole cell currents at 10 uM by whole cell patch-clamp technique; conditions: Homo sapiens
CHO-K1 [2] = assay: Activation of wild type BK calcium channel STREX domain-deleted mutant (unknown origin) expressed in CHO-K1 cells assessed as increase in channel open probability at 10 uM at +20 mV holding potential by whole cell patch-clamp technique (reference value: 0.7 +/- 0.1%); conditions: Homo sapiens
CHO-K1 [3] = assay: Activation of wild type BK calcium channel (unknown origin) expressed in CHO-K1 cells assessed as increase in channel open probability at 0.1 uM at +20 mV holding potential by whole cell patch-clamp technique (reference value: 0.58 +/- 0.03%); conditions: Homo sapiens
CHO-K1 [4] = assay: Activation of wild type BK calcium channel (unknown origin) expressed in CHO-K1 cells assessed as increase in channel open probability at 1 uM at +20 mV holding potential by whole cell patch-clamp technique (reference value: 0.58 +/- 0.03%); conditions: Homo sapiens
CHO-K1 [5] = assay: Activation of wild type BK calcium channel (unknown origin) expressed in CHO-K1 cells assessed as increase in channel open probability at 10 uM at +20 mV holding potential by whole cell patch-clamp technique (reference value: 0.58 +/- 0.03%); conditions: Homo sapiens
CHO-K1 [6] = assay: (§1) Activation of wild type BK calcium channel (unknown origin) expressed in CHO-K1 cells assessed as increase in channel open probability at +20 mV holding potential by whole cell patch-clamp technique; conditions: Homo sapiens
[7] = as §1
CHO-K1 [8] = assay: Activation of wild type BK calcium channel (unknown origin) expressed in CHO-K1 cells assessed as increase in channel open probability at 5 uM at +20 mV holding potential by whole cell patch-clamp technique (reference value: 0.58 +/- 0.03%); conditions: Homo sapiens
CHO-K1 [9] = assay: Activation of wild type BK calcium channel (unknown origin) expressed in CHO-K1 cells assessed as increase in channel open probability by whole cell patch-clamp technique relative to control; conditions: Homo sapiens

In the case of `CCCCCCCCC/C=C\CC/C=C/[C@@H](O)[C@H](CO[C@@H]1O[C@H](CO)[C@@H](O)[C@H](O)[C@H]1O)NC(=O)[C@H](O)CCCCCCCCCCCCCCCCCCCC`, the Activity (CHO-K1 [1]) is reported as “Active”, the Activity (CHO-K1 [2]) is reported as 0.9% and the Activity (CHO-K1 [3]) is reported as 0.65%. The Activity (CHO-K1 [4]) was 2.4%, the Activity (CHO-K1 [5]) was 4.2% and the Activity (CHO-K1 [6]) was “Dose-dependent effect”. It also gave an EC50 [7] of 1000 nM, an Activity (CHO-K1 [8]) of 3.3% and a fold change (FC) (CHO-K1 [9]) of 5.34.

`CCCCCCCCC/C=C\CC/C=C/[C@@H](O)[C@H](CO[C@@H]1O[C@H](CO)[C@@H](O)[C@H](O)[C@H]1O)NC(=O)[C@H](O)CCCCCCCCCCCCCCCC` gave a fold change (FC) (CHO-K1 [9]) of 1.15.

In the case of `CCCCCCCCC/C=C/CC/C=C/[C@@H](O)[C@H](CO[C@@H]1O[C@H](CO)[C@@H](O)[C@H](O)[C@H]1O)NC(=O)[C@H](O)CCCCCCCCCCCCCCCC`, the fold change (FC) (CHO-K1 [9]) is reported as 2.03.

For `CCCCCCCCC/C=C/CC/C=C/[C@@H](O)[C@H](CO[C@@H]1O[C@H](CO)[C@@H](O)[C@H](O)[C@H]1O)NC(=O)[C@H](O)CCCCCCCCCCCCCCCCCC`, the fold change (FC) (CHO-K1 [9]) was 3.12.

`CCCCCCCCC/C=C\CC/C=C/[C@@H](O)[C@H](CO[C@@H]1O[C@H](CO)[C@@H](O)[C@H](O)[C@H]1O)NC(=O)[C@H](O)CCCCCCCCCCCCCCCCCC` gave a fold change (FC) (CHO-K1 [9]) of 1.89.
